This note sets out measurements from PMC11672551, “Cyclic Ruthenium-Peptide Prodrugs Penetrate the Blood–Brain Barrier and Attack Glioblastoma upon Light Activation in Orthotopic Zebrafish Tumor Models” (ACS Central Science, 2024).

pEC50: −log10 of the molar value. Like-named read-outs stand apart in the source and are kept apart here.

In this assay the test system is U87MG cells. Description: 2D cytotoxicity assay, SRB end point, dark vs green light. The class given is cell-based, human. The settings on record: normoxia (21% O2); for pEC50: SRB at 96 h. The protocol: To test the in vitro phototoxicity of the three complexes toward 2D monolayer U87MG cells, a cell viability assay was undertaken as follows: the cells were seeded at t = 0, treated at t = 24 h, irradiated with green light (520 nm, 13.1 J cm^–2) at t = 48 h without refreshing the medium (drug-to-light interval = 24 h), further incubated in the dark for 48 h, and counted at t = 96 h with a sulforhodamine B (SRB) cell quantification end point assay.[45] Half-maximal effective concentrations (EC50 in μM), compared to untreated control, and photoindex (PI) values, defined as EC50,dark/ EC50,light, were calculated to characterize the toxicity and light activation of each Ru-peptide conjugate. […] However, a much stronger discrepancy appeared in the 2D toxicity data in hypoxic conditions (Table 2, Figure S22b). The phototherapeutic properties of Ru-p(HH) in the green light group were the poorest, leading to a PI of only 1.3. […] Ru-p(MH) stood somewhere between these values with a PI of 1.9 under hypoxia. […] The loss of activity of Ru-p(HH) under hypoxia is consistent with the hypothesis of a PDT pathway, while Ru-p(MM) keeping appreciable phototoxicity under hypoxia better fits the hypothesis of a PACT cell-killing mechanism.
U87MG cells (6000) were seeded in 96-well plates (Sarstedt, 83.3924), and each well contained 100 μL of Opti-MEM (Gibco complete medium 11058-021, supplemented with 2.5% v/v fetal calf serum (FCS), 0.2% v/v penicillin/streptomycin (P/S), and 1% v/v glutamine). They were then placed either in a normoxic (21% O2) or hypoxic (1.0% O2) incubator; 24 h later, different concentrations of Ru-p(HH), Ru-p(MH), or Ru-p(MM) dissolved in Opti-MEM (100 μL) were added to the wells in triplicate. For each complex, one dark and one light plate were involved. Each plate was further incubated in the dark for 24 h (DLI). After that, one plate was irradiated with green light (520 nm) for 20 min at 37 °C for normoxia (dose = 13.1 J cm^–2) or 30 min for hypoxia (dose = 13.0 J cm^–2), while the other plate was kept in the dark. The cells were further incubated for another 2 days in normoxic or hypoxic conditions, respectively. Finally, 100 μL of cold trichloroacetic acid (10% w/v) was added to each well to fix the cells, and all plates were then transferred to a 4 °C refrigerator for 48 h before an SRB cell quantification end point assay was performed.[45] All experiments were conducted in biologically independent triplicate.
Hypoxic cell models in vitro: all cells were incubated and passaged in a dark hypoxic incubator (1% O2) for at least 2 weeks before all hypoxia studies. Adding chemicals to the cells had to be performed in air; however, the cell-growing medium was kept in the hypoxia incubator for at least 2 days before the addition to hypoxic cells, and all hypoxic light irradiations were performed inside the hypoxic incubator set at 1.0% O2.

What is called pEC50 is the negative decadic logarithm of the EC50, by convention in mol/L. As to [Ru(Ph2phen)2(bpy)]Cl2, the “PI, photoindex EC50,dark/EC50,light” value turned out to be 74.4. Further, where the note is “520 nm, 10.9 mW cm–2, 13.1 J cm–2, 20 min, DLI 24 h, n = 3, read-out: EC50, green light”, the pEC50 was 6.74. Under “light dose 0, 24 h treatment, no wash, n = 3, read-out: EC50, dark”, the negative-log EC50 (pEC50) was 4.87.
